How the values were obtained:
[1] = biological target: T1, hM3 muscarinic receptor subtype (Homo sapiens, UniProt P20309); test: Radioligand binding assay on muscarinic receptor subtypes ([3H]-NMS displacement)
T1 construct: expressed in transfected cells; crude membranes prepared in house
Procedure: CHO cell lines stably expressing cloned human hM1, hM2, hM3 and hM4 muscarinic receptor subtypes, respectively, were grown to near confluency in medium consisting of HAM's F-12 supplemented with 10% FBS and 250 μg/mL Geneticin. The cells were grown in a 5% CO2, 37° C. incubator and lifted with 2 mM EDTA in dPBS. Cells were collected by 5 minute centrifugation at 650×g, and cell pellets were either stored frozen at −80° C. or membranes were prepared immediately. For membrane preparation, cell pellets were resuspended in lysis buffer and homogenized with a Polytron PT-2100 tissue disrupter (Kinematica AG; 20 seconds×2 bursts). Crude membranes were centrifuged at 40,000×g for 15 minutes at 4° C. […] The protein concentration of the membrane suspension was determined by the method described in Lowry, O. et al., Journal of Biochemistry 193:265 (1951). […]
Radioligand binding assays were performed in 96-well microtiter plates in a total assay volume of […]. […] Filter plates were rinsed three times with wash buffer (10 mM HEPES) to remove unbound radioactivity. […] The plates were then counted in a PerkinElmer Topcount liquid scintillation counter (PerkinElmer Inc., Wellesley, Mass.). Binding data were analyzed by nonlinear regression analysis with the GraphPad Prism Software package (GraphPad Software, Inc., San Diego, Calif.) using the one-site competition model. […]

[2] = test system: pilocarpine-induced salivation; test: Rat antisialagogue assay; assay type: in vivo; conditions: evaluated at 1, 6, and 24 hr post-dose
Procedure: Rats (Sprague-Dawley, male, 250-350 g) are dosed, anesthetized and cannulated as described for Assay 3. At predetermined time points and after surgery, animals are placed on their dorsal side at a 200 incline with their head in a downward slope. A pre-weighed gauze pad is inserted in the animal's mouth and the muscarinic agonist pilocarpine (PILO) (3 mg/kg, iv.) is administered. Saliva produced during 10 minutes post-PILO is measured gravimetrically by determining the weight of the gauze pad before and after PILO. Antisialagogue effects are expressed as % inhibition of salivation relative to control animals.
The rat antisialagogue assay was developed to assess systemic exposure and calculate the lung selectivity index (LSI) of test compounds. The standard, tiotropium, was evaluated in this model at 1, 6, and 24 hr post-dose. […] This finding is consistent with the peak effects observed in the Einthoven assay.
This model is a modified version of the procedure described in Rechter, “Estimation of anticholinergic drug effects in mice by antagonism against pilocarpine-induced salivation” Ata Pharmacol Toxicol 24:243-254 (1996). The mean weight of saliva in vehicle-treated animals, at each pre-treatment time, is calculated and used to compute % inhibition of salivation, at the corresponding pre-treatment time, at each dose.

MCh response = test: Rat Einthoven assay (bronchoprotection); assay type: in vivo; conditions: inhalation; for ID50 (bronchoprotection): 1.5 hrs post-dose
Procedure: All test compounds are diluted in sterile water and are dosed via the inhalation route (IH). The rats (Sprague-Dawley, male, 250-350 g) are exposed to the aerosol generated from an LC Star Nebulizer Set and driven by a mixture of gases (5% CO2/95% atmospheric air). Each test compound solution is nebulized over a 10 minute time period in a pie shaped dosing chamber capable of holding six rats. At predetermined time points after inhalation of compound, the Einthoven assay is performed.
Thirty minutes prior to the start of pulmonary evaluation, the animals are anesthetized with inactin (thiobutabarbital, 120 mg/kg IP). The jugular vein is catheterized with saline filled polyethylene catheters (PE-50) and used to infuse MCh. The trachea is then dissected and cannulated with a 14G needle and used for rat ventilation during pulmonary evaluation. Once surgery is complete, rats are ventilated using a piston respirator set at a stroke volume of 1 ml/100 g body weight but not exceeding 2.5 ml volume, and at a rate of 90 strokes per minute.
The changes in pressure that occur with each breath are measured. Baseline values are collected for at least 2.5 minutes then rats are challenged non-cumulatively with 2-fold incremental increases of the bronchoconstrictor MCh (5, 10, 20, 40 and 80 μg/ml). The MCh is infused for 2.5 minutes from a syringe pump at a rate of 2 mL/kg/min. The animals are euthanized upon completion of the studies.
Changes in ventilation pressure (cm H2O) in treated animals are expressed as % inhibition of MCh response relative to control animals.
Standard muscarinic antagonists were evaluated in the rat Einthoven assay 1.5 hrs post-dose.
Standards tiotropium and ipratropium were also evaluated 24 hr and/or 6 hr post-dose in the rat Einthoven assay. […] The observed loss of activity at this time point (6 hr) is consistent with its relatively short duration of action in the clinic.

T1 sequence (P20309 whole entry): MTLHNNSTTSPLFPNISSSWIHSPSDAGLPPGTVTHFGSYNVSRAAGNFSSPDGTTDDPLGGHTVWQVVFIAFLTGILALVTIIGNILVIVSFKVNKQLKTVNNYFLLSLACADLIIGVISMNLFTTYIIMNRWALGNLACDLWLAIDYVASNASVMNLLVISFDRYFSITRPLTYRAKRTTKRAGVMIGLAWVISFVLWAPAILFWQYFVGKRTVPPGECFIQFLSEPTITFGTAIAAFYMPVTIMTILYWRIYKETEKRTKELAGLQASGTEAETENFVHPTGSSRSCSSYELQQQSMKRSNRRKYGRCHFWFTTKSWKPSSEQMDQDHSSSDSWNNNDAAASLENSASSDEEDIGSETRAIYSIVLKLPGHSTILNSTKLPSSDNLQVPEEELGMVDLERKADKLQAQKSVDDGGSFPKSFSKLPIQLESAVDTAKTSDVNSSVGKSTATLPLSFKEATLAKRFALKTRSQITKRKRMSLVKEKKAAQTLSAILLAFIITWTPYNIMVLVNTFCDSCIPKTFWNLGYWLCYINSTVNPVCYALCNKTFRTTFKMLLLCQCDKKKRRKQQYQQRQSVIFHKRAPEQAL

Structure (SMILES): C[N+]1(CCCSc2ccccc2)CC[C@@H](C(C(N)=O)(c2ccccc2)c2ccccc2)C1 (stereo partly drawn) [Example 2, (S)-3-(Carbamoyldiphenylmethyl)-1-methyl-1-(3-phenylsulfanylpropyl)pyrrolidinium]
- Ki [1]: < 0.5 nM

Structure (SMILES): C[N+]1(C)[C@@H]2C[C@@H](OC(=O)C(O)(c3cccs3)c3cccs3)C[C@H]1[C@@H]1O[C@@H]12 [tiotropium]
- time post dose at which most potent at inhibiting pilocarpine-induced salivation [2]: 6 h
- 6 hr versus 24 hr potency values (MCh response): not significantly different
- fold more potent at 6 hr and 24 hr compared to 1.5 hr potency (MCh response): about 2 fold
- onset of effect (MCh response): slow onset of effect
- time of peak bronchoprotection post-dose (MCh response): 6 h
- ID50 (bronchoprotection) (MCh response): 6 µg/mL

Structure (SMILES): C[N+]1(C)CCC(OC(=O)C(O)(c2ccccc2)C2CCCC2)C1 (stereo not shown) [glycopyrrolate]
- ID50 (bronchoprotection) (MCh response): 15 µg/mL

Structure (SMILES): CC(C)[N+]1(C)[C@@H]2CC[C@H]1C[C@@H](OC(=O)C(CO)c1ccccc1)C2 (stereo partly shown) [ipratropium]
- fold less potent 6-hr post-dose compared to 1.5 hr potency (MCh response; 10 and 30 μg/ml): about 3 fold
- ID50 (bronchoprotection) (MCh response): 4.4 µg/mL

From patent US8802856B2, “Quaternary ammonium diphenylmethyl compounds useful as muscarinic receptor antagonists” (Theravance Biopharma R&D IP, LLC, priority 2007, dated 2014)
